# Publication PMC9363482, “The crystal structure of Cry78Aa from Bacillus thuringiensis provides insights into its insecticidal activity” (Communications Biology, 2022)
# Assays:
# Cry78Aa (Cry78Aa1) = target: T1, Cry78Aa (Cry78Aa1) (Bacillus thuringiensis, UniProt A0A3S6Q0Y2); conditions: 20 mM Tris-HCl pH 8.0, 25 °C; one-site binding model; 50 mM sugar into 150 µM protein
# T1 construct: ITC section says only 'Cry78Aa protein'
# [1] = other: SDS-PAGE under mild denaturing conditions
# T1 sequence (A0A3S6Q0Y2 1-359 limits assumed): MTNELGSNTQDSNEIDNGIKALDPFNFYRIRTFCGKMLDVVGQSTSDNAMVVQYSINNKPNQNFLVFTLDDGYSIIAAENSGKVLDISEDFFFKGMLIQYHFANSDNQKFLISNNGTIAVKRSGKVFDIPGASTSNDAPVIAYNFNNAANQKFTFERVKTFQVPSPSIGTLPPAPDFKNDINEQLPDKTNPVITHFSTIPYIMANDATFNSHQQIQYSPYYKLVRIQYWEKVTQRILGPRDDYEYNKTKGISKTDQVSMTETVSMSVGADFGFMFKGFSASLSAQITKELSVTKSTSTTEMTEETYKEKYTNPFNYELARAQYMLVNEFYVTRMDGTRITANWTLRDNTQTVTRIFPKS
compound,measurement,setting,value
CC(=O)N[C@H]1C(O)O[C@H](CO)[C@H](O)[C@@H]1O (stereo partly drawn) [GalNAc],Kd,Cry78Aa (Cry78Aa1),~9.8 mM
Cry78Aa_(155-359),percent of the sample as oligomers or aggregates in 0.1% SDS,[1],~30% of the total sample loaded onto each lane
OC[C@H]1O[C@@H](O[C@H]2[C@H](O)[C@@H](O)C(O)O[C@@H]2CO)[C@H](O)[C@@H](O)[C@H]1O (stereo partly drawn) [lactose],Kd,Cry78Aa (Cry78Aa1),~10.2 mM
